Test results from paper PMC2719696, “Kinetics and Cellular Site of Glycolipid Loading Control the Outcome of Natural Killer T Cell Activation” (Immunity, 2009).

Molecular target: T1, mCD1d.WT (Mus musculus, UniProt P11609)
T1 construct: expressed in transfected cells; host or cells: A20 B lymphoma cells (provided by M. Kronenberg)
T1 sequence (P11609 22-336): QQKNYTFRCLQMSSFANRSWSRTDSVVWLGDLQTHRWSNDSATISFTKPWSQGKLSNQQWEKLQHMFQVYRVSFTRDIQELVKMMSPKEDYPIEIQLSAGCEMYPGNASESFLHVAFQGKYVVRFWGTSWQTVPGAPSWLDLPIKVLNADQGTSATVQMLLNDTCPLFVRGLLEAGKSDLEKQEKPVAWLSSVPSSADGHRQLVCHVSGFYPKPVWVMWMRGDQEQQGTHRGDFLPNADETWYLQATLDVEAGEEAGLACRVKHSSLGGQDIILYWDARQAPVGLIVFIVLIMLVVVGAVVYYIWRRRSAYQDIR
T1 sequence (P01887 21-119 partner): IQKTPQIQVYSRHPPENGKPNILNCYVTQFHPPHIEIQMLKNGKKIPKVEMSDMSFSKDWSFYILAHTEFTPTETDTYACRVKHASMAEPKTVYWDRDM
Assay: iNKT hybridoma DN3A4.1-2 stimulation with A20 cells expressing wild-type mCD1d, IL-2 release
Type: cell-based
Details: A20 B lymphoma cells expressing mCD1d.WT; compared to all Th2 cell-type cytokine-biasing analogs
Description: Figure 4 Cell Surface versus Intracellular Loading of mCD1d with Different αGalCer Analogs (A) On the left, surface accumulation of CD1d-αGalCer complexes was studied with JAWS II cells harvested after incubation with the indicated glycolipids for 1, 4, or 16 hr and then stained without permeabilization with mAb L363 (red). Cells were then fixed, stained with DAPI for nuclei visualization (blue), and analyzed by confocal microscopy. On the right, the intracellular formation and trafficking of CD1d-αGalCer complexes were analyzed by treatment of JAWS II cells with αGalCer analogs for 1, 4, and 16 hr followed by fixation and permeabilization. The cells were stained for CD1d-αGalCer complexes (L363, red), late endosomes and lysosomes (anti-LAMP-1, green), and nuclei (DAPI, blue). Results are representative of three separate experiments. The scale bar represents 10 μm. […] Supernatant concentrations of IL-2 release were determined after 12 hr. […]
For in vitro stimulation, murine iNKT hybridomas at 5 × 10^4 cells/well in 96-well plates were stimulated with an equal number of either JAWS II cells or transfected A20 cells in complete medium with glycolipids for 12 hr at 37°C, and levels of murine IL-2 secretion were determined. […] Subsequently the levels of IL-4, IL-13, and IFN-γ in culture supernatants were quantified by capture ELISA. […]

| Compound | relative potency at activating iNKT cells |
| --- | --- |
| CCCCCCCCCCCCCCCCCCCCCCCC(=O)NC(COC1OC(CO)C(O)C(O)C1O)C(O)C(O)CCCCCCCCCCCCCC (centres unmarked) [αGalCer-C24:0] | significantly more potent |
| CCCCCCCCCCCCCCCCCCCCCCCCCC(=O)NC(COC1OC(CO)C(O)C(O)C1O)C(O)C(O)CCCCCCCCCCCCCC (centres unmarked) [αGalCer-C26:0, reference compound] | significantly more potent |
